Experimental findings from ChEMBL document CHEMBL1201862, “PubChem BioAssay data set” (2004) are described below.

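96-well plates; 48 h exposure; 5 concentrations. Endpoints by linear interpolation between flanking doses. Not reached: highest tested concentration assigned. GI50 = concentration required for 50% inhibition of growth.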 The source made the active and inactive calls. Cut-off read from the data, not from the text of the source: active = GI50 up to about 1.1 µM and inactive = higher.

Some test systems named below: DLD-1; DMS-273; HOP-18; KM-20L2; LXFL 529; M19-MEL; RXF 631; SNB-78; XF498.
Holding throughout (assay): NCI tumour cell line growth inhibition, 48 h

As to `Clc1ccc(CN2COc3c(cc(Cl)c4cccnc34)C2)cc1`, the GI50 in the experiment with DLD-1 was 2.52 µM (inactive); in the experiment on DMS-273, 1.78 µM (inactive); with HOP-18 it was 3.96 µM (inactive); with KM-20L2, 14.3 µM (inactive); in the experiment with LXFL 529, 1.36 µM (inactive); with M19-MEL, 2.28 µM (inactive). For the same compound, the results for the GI50 in the experiment on RXF 631, in the experiment with SNB-78 and in the experiment on XF498 were 10.3 µM (inactive), 4.79 µM (inactive) and 0.973 µM (active), respectively.

For the compound `CC(C)(Oc1ccc2c(=O)cc(-c3ccccc3)oc2c1)C(=O)Nc1c(Cl)cccc1Cl`, the GI50 was 64.4 µM (inactive) with DMS-273; > 100 µM (inactive) with HOP-18; > 100 µM (inactive) in the experiment on KM-20L2; 81.7 µM (inactive) in the experiment on LXFL 529; 68.2 µM (inactive) in the experiment with M19-MEL; > 100 µM (inactive) with SNB-78. Further, the GI50 in the experiment with XF498 was 14.3 µM (inactive).

Take `Nc1nc2c(nnn2C2C=C(CO)C(O)C2O)c(=O)[nH]1` (centres undefined): the GI50 in the experiment with DLD-1, in the experiment on DMS-273, in the experiment on HOP-18, in the experiment on KM-20L2, in the experiment with LXFL 529 and in the experiment on M19-MEL was > 100 µM (inactive) in each case. Moreover, the GI50 is 95.3 µM (inactive) in the experiment on SNB-78 and > 100 µM (inactive) in the experiment on XF498.

Regarding `COC(=O)C1C(O)CC(c2ccccn2)N(Cc2ccccc2)C1c1ccccn1` (centres undefined), the GI50 with DLD-1, in the experiment on DMS-273, in the experiment with HOP-18, in the experiment with KM-20L2, with LXFL 529 and in the experiment on M19-MEL was > 100 µM (inactive) each time. The GI50 in the experiment with RXF 631 and with SNB-78 was > 100 µM (inactive) in each case.

`CC1=C(C(=O)Nc2cccc(C(F)(F)F)c2)C(c2ccccc2F)C(C(=O)Nc2cccc(C(F)(F)F)c2)=C(C)N1`: the GI50 was 6.21 µM (inactive) in the experiment on DLD-1; 4.51 µM (inactive) in the experiment on KM-20L2; 5.57 µM (inactive) in the experiment with LXFL 529; 7.45 µM (inactive) in the experiment with M19-MEL; 10 µM (inactive) in the experiment with RXF 631; 13.9 µM (inactive) in the experiment with SNB-78. Moreover, in the experiment with XF498, the GI50 was 2.09 µM (inactive).

Take `O=C(O)CN(c1ccc(Cl)cc1)S(=O)(=O)c1ccccc1`: the GI50 in the experiment with DLD-1, in the experiment with DMS-273, with HOP-18, in the experiment with KM-20L2, in the experiment on LXFL 529 and with M19-MEL was > 100 µM (inactive) each time. Also, the GI50 in the experiment with RXF 631 and in the experiment with XF498 was > 100 µM (inactive) throughout.

Consider `CO/C=C/c1cc2c(cc1C(OC)OC)OCO2`, for which the GI50 with DLD-1 is 36.1 µM (inactive); with DMS-273, 30.3 µM (inactive); in the experiment on KM-20L2 it was 35.2 µM (inactive); in the experiment on M19-MEL it was 76.4 µM (inactive); with RXF 631, 43.7 µM (inactive); in the experiment with SNB-78, > 100 µM (inactive). Moreover, the GI50 in the experiment with XF498 was 33.4 µM (inactive).

Consider `CC1=NN(C(=O)Cc2ccccc2)C(=O)/C1=C\c1ccc(O)cc1`, for which the GI50 with DLD-1 was > 100 µM (inactive); in the experiment on KM-20L2, > 100 µM (inactive); with LXFL 529, > 100 µM (inactive); in the experiment with M19-MEL it was > 100 µM (inactive); with SNB-78, 36.8 µM (inactive); in the experiment on XF498, > 100 µM (inactive).

As for `CCc1cccc(CC)c1NC(=O)/C(Cl)=C(/Cl)C(=O)O`, the GI50 in the experiment with DLD-1 is 22.8 µM (inactive); in the experiment with DMS-273 it was 50 µM (inactive); in the experiment on HOP-18, 24.3 µM (inactive); with KM-20L2 it was 43.8 µM (inactive); in the experiment with LXFL 529, 13.6 µM (inactive); with M19-MEL, 31.6 µM (inactive). Besides, the GI50 in the experiment with SNB-78 is 37.7 µM (inactive); in the experiment on XF498 it was 22.6 µM (inactive).

As for `c1ccc(-c2[nH]c(-c3ccccc3)c(-c3cnccn3)c2-c2cnccn2)cc1`, the GI50 in the experiment with DLD-1, with DMS-273, in the experiment on HOP-18, with KM-20L2, with M19-MEL and with SNB-78 was > 100 µM (inactive) each time. In the experiment with XF498, the GI50 was 95.7 µM (inactive).

Turning to `CC1=C(C(=O)Nc2ccc([N+](=O)[O-])cc2)C(c2ccc(N(C)C)cc2)C(C(=O)Nc2ccc([N+](=O)[O-])cc2)=C(C)N1`, the GI50 with DLD-1 was 11.9 µM (inactive); with KM-20L2, 11.4 µM (inactive); in the experiment on LXFL 529 it was 16.8 µM (inactive); in the experiment on M19-MEL, 15.6 µM (inactive); in the experiment on SNB-78, 29.2 µM (inactive).

Turning to `O=C(O)CCSC(=S)Nc1ccc([N+](=O)[O-])cc1`, the GI50 in the experiment on DMS-273 is 75.9 µM (inactive); in the experiment with KM-20L2 it was > 100 µM (inactive); with LXFL 529, 46.6 µM (inactive); with SNB-78, > 100 µM (inactive).

`CN1CC(=O)N(C)c2ncn(Cc3ccccc3)c2C1=O`: the GI50 was > 100 µM (inactive) in the experiment on DLD-1; > 100 µM (inactive) with DMS-273; > 100 µM (inactive) with HOP-18; > 100 µM (inactive) in the experiment on LXFL 529; > 100 µM (inactive) in the experiment with M19-MEL; 4.68 µM (inactive) in the experiment with RXF 631. The GI50 is > 100 µM (inactive) in the experiment on SNB-78 and 17 µM (inactive) with XF498.

Turning to `NNC(=S)N/N=C(\c1nc2ccc(Cl)cc2nc1O)C(O)c1ccc(Cl)cc1Cl` (centres undefined), the GI50 in the experiment with DLD-1, in the experiment on DMS-273, in the experiment with HOP-18, with KM-20L2, in the experiment on LXFL 529 and in the experiment with M19-MEL was > 100 µM (inactive) throughout. Also, the GI50 with RXF 631, in the experiment on SNB-78 and with XF498 was > 100 µM (inactive) throughout.

In the case of `CCN(CC)c1c(C(=O)/C=C/c2ccc(OC)cc2)c(-c2ccccc2)nn(C)c1=O`, the GI50 in the experiment with DLD-1 was 12.1 µM (inactive); with DMS-273, 2.37 µM (inactive); in the experiment on HOP-18 it was 22.2 µM (inactive); in the experiment with KM-20L2 it was 15.4 µM (inactive); with LXFL 529, 10.7 µM (inactive); with M19-MEL, 6.34 µM (inactive). In addition, the GI50 was 20.6 µM (inactive) in the experiment with RXF 631 and 25 µM (inactive) in the experiment with SNB-78.

As for `COC(=O)c1ccc(Cc2ccc(C(=O)OC)o2)o1`, the GI50 was > 378 µM (inactive) in the experiment on DLD-1; > 378 µM (inactive) in the experiment on DMS-273; 38.5 µM (inactive) with HOP-18; > 378 µM (inactive) in the experiment with KM-20L2; > 378 µM (inactive) with LXFL 529; > 378 µM (inactive) in the experiment on M19-MEL. Besides, the GI50 with RXF 631 was > 378 µM (inactive).

`COC(=O)C(=O)C(C(=O)C1=NS(=O)(=O)c2cc(S(N)(=O)=O)c(Cl)cc2N1)c1nc2ccc(C(=O)c3ccccc3)cc2nc1O` (centres undefined): the GI50 was > 100 µM (inactive) with DMS-273; > 100 µM (inactive) in the experiment on HOP-18; > 100 µM (inactive) in the experiment on KM-20L2; 38.9 µM (inactive) in the experiment on LXFL 529; > 100 µM (inactive) in the experiment on M19-MEL; 86.9 µM (inactive) in the experiment with RXF 631. The GI50 was 85.1 µM (inactive) with SNB-78 and 39 µM (inactive) in the experiment on XF498.
